{"source": "patent US8959984B2", "about": "“Proteome-wide quantification of small molecule binding to cellular target proteins” (priority 2007, dated 2015)", "key": {"ALK2 (ACVR1)": {"target": "T1, ALK2 (ACVR1) (Homo sapiens, UniProt Q04771)", "T1 sequence (Q04771 21-509)": "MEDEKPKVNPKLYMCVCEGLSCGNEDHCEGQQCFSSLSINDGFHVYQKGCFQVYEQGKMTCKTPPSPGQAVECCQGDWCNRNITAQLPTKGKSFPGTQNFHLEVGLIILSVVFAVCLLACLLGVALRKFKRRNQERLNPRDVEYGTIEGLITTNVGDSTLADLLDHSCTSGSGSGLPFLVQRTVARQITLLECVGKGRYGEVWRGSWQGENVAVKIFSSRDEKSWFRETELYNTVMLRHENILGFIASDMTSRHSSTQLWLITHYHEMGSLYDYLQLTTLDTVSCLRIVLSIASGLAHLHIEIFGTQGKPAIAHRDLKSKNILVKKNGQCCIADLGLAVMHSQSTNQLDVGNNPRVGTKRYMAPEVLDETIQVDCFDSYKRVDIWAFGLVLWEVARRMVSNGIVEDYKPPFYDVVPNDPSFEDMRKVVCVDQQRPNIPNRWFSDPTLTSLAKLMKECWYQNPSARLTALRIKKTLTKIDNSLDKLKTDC"}, "NT5DC1 (IPI00177965)": {"target": "T2, NT5DC1 (IPI00177965) (Homo sapiens, UniProt Q5TFE4)", "T2 construct": "endogenous in cells; host or cells: HeLa S3 cell lysate", "T2 sequence (Q5TFE4 1-455)": "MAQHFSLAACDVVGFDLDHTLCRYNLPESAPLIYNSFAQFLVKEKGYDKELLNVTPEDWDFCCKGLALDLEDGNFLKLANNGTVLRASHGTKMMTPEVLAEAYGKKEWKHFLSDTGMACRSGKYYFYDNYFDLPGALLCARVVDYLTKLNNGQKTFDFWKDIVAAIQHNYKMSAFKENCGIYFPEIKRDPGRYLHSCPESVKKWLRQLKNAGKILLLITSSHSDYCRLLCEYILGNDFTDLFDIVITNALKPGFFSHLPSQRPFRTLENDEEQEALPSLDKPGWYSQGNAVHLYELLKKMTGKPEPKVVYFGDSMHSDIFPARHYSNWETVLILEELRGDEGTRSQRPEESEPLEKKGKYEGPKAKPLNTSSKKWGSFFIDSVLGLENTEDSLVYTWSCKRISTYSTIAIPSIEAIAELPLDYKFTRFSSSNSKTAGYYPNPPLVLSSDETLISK", "test": "binding to VI16742 beads (HeLa lysate, SILAC MS)"}, "CaMKK1": {"target": "T3, CaMKK1 (Homo sapiens, UniProt Q8N5S9)", "T3 construct": "endogenous in cells; host or cells: HeLa S3", "T3 sequence (Q8N5S9 whole entry)": "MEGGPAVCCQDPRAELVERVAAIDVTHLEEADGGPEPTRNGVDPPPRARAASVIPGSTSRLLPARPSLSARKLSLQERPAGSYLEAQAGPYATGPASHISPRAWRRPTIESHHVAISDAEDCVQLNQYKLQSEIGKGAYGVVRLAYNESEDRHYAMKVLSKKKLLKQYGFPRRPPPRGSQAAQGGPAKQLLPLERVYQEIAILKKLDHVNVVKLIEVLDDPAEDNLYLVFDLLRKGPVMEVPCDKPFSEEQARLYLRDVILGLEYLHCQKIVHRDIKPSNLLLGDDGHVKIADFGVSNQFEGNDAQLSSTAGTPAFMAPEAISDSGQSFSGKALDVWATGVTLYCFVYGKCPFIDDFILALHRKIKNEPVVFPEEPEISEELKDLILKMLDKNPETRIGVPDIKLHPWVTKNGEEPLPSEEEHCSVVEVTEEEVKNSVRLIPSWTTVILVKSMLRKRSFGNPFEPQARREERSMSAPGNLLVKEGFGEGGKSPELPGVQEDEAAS", "test": "binding to immobilized V16742 (IVA1/IVA2, HeLa lysate, MS)"}, "PITSLRE": {"test_system": "PITSLRE", "test": "binding to immobilized V16742 (IVA1/IVA2, HeLa lysate, MS)", "set-up": "species or system human"}, "RIOK2": {"target": "T4, RIOK2 (Homo sapiens, UniProt Q9BVS4)", "T4 construct": "endogenous in cells; host or cells: HeLa S3", "T4 sequence (Q9BVS4 whole entry)": "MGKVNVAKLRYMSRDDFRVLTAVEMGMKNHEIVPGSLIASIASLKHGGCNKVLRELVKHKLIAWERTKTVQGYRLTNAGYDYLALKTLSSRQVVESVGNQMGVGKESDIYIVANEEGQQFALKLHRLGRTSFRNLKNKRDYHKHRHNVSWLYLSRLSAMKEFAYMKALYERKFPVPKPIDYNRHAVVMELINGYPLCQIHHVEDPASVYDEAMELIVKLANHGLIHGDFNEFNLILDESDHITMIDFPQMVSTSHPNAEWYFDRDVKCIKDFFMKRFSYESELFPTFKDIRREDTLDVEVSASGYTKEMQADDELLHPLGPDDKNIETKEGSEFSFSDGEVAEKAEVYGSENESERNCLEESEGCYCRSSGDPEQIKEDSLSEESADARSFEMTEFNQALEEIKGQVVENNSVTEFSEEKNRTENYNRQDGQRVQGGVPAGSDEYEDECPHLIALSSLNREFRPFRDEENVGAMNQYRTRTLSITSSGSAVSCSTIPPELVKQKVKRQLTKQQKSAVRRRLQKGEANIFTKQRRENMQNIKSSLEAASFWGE", "test": "binding to immobilized V16742 (IVA1/IVA2, HeLa lysate, MS)"}, "[1]": {"details": "average of two experiments, read-out: Kd Avg"}}, "note": "Where two headings read alike, the source gives them in different places.", "data": [{"compound": "COc1cc2ncnc(Nc3ccc(F)c(Cl)c3)c2cc1OCCCN1CCOCC1", "note": "[gefitinib]", "values": [{"measurement": "rAVERAGE (10 nM/0 nM Gef.)", "setting": "ALK2 (ACVR1)", "result": 0.76}, {"measurement": "rAVERAGE (100 nM/0 nM Gef.)", "setting": "ALK2 (ACVR1)", "result": 1.25}, {"measurement": "rAVERAGE (1000 nM/0 nM Gef.)", "setting": "ALK2 (ACVR1)", "result": 0.77}, {"measurement": "rAVERAGE (10000 nM/0 nM Gef.)", "setting": "ALK2 (ACVR1)", "result": 0.85}]}, {"compound": "CC(C)n1c(=O)ccc2cnc(Nc3ccc(OCCN)cc3)nc21", "note": "[V16742]", "values": [{"measurement": "rAVERAGE (CTRL/1 INC)", "setting": "NT5DC1 (IPI00177965); control beads vs first incubation", "result": 0.07}, {"measurement": "Ki", "setting": "NT5DC1 (IPI00177965); immobilized VI16742", "result": 94.8, "unit": "µM"}, {"measurement": "rAVERAGE (2 INC/1 INC)", "setting": "NT5DC1 (IPI00177965); second vs first incubation", "result": 0.65}, {"measurement": "Percent bound at various 16742 conc", "setting": "CaMKK1; Experiment 1, 1.87 μM 16742", "result": 2.08, "unit": "%"}, {"measurement": "Percent bound at various 16742 conc", "setting": "CaMKK1; Experiment 1, 8.74 μM 16742", "result": 10.67, "unit": "%"}, {"measurement": "Percent bound at various 16742 conc", "setting": "CaMKK1; Experiment 1, 52 μM 16742", "result": 63.34, "unit": "%"}, {"measurement": "Kd", "setting": "CaMKK1; Experiment 1, read-out: Kd", "result": 37.9, "unit": "µM"}, {"measurement": "Percent bound at various 16742 conc", "setting": "CaMKK1; Experiment 2, 1.87 μM 16742", "result": 1.46, "unit": "%"}, {"measurement": "Percent bound at various 16742 conc", "setting": "CaMKK1; Experiment 2, 8.74 μM 16742", "result": 6.65, "unit": "%"}, {"measurement": "Percent bound at various 16742 conc", "setting": "CaMKK1; Experiment 2, 52 μM 16742", "result": 47.32, "unit": "%"}, {"measurement": "Kd", "setting": "CaMKK1; Experiment 2, read-out: Kd", "result": 63.9, "unit": "µM"}, {"measurement": "Kd", "setting": "CaMKK1; [1]", "result": 50.9, "unit": "µM"}, {"measurement": "Percent bound at various 16742 conc", "setting": "PITSLRE; Experiment 1, 1.87 μM 16742", "result": 1.13, "unit": "%"}, {"measurement": "Percent bound at various 16742 conc", "setting": "PITSLRE; Experiment 1, 8.74 μM 16742", "result": 12.03, "unit": "%"}, {"measurement": "Percent bound at various 16742 conc", "setting": "PITSLRE; Experiment 1, 52 μM 16742", "result": 49.06, "unit": "%"}, {"measurement": "Kd", "setting": "PITSLRE; Experiment 1, read-out: Kd", "result": 56.1, "unit": "µM"}, {"measurement": "Percent bound at various 16742 conc", "setting": "PITSLRE; Experiment 2, 1.87 μM 16742", "result": 2.00, "unit": "%"}, {"measurement": "Percent bound at various 16742 conc", "setting": "PITSLRE; Experiment 2, 8.74 μM 16742", "result": 4.78, "unit": "%"}, {"measurement": "Percent bound at various 16742 conc", "setting": "PITSLRE; Experiment 2, 52 μM 16742", "result": 46.71, "unit": "%"}, {"measurement": "Kd", "setting": "PITSLRE; Experiment 2, read-out: Kd", "result": 66.7, "unit": "µM"}, {"measurement": "Kd", "setting": "PITSLRE; [1]", "result": 61.4, "unit": "µM"}, {"measurement": "Percent bound at various 16742 conc", "setting": "RIOK2; Experiment 1, 8.74 μM 16742", "result": 11.61, "unit": "%"}, {"measurement": "Percent bound at various 16742 conc", "setting": "RIOK2; Experiment 1, 52 μM 16742", "result": 58.06, "unit": "%"}, {"measurement": "Kd", "setting": "RIOK2; Experiment 1, read-out: Kd", "result": 42.6, "unit": "µM"}, {"measurement": "Percent bound at various 16742 conc", "setting": "RIOK2; Experiment 2, 1.87 μM 16742", "result": 1.55, "unit": "%"}, {"measurement": "Percent bound at various 16742 conc", "setting": "RIOK2; Experiment 2, 8.74 μM 16742", "result": 7.91, "unit": "%"}, {"measurement": "Percent bound at various 16742 conc", "setting": "RIOK2; Experiment 2, 52 μM 16742", "result": 48.34, "unit": "%"}, {"measurement": "Kd", "setting": "RIOK2; Experiment 2, read-out: Kd", "result": 60.8, "unit": "µM"}, {"measurement": "Kd", "setting": "RIOK2; [1]", "result": 51.7, "unit": "µM"}]}]}
